This assay addresses T1, E. coli CsgA (Escherichia coli, UniProt P28307).
T1 construct: made in house; host or cells: E. coli NEB 3016 slyD::kan, pET11d
Description: In vitro ThioflavinT assay of CsgA aggregation (CsgA ThT Assay). Type of assay: biochemical. The conditions noted are these: for remaining activity at 25 µM / CsgA ThT Assay (10 μM CsgA) % Control AUC at 1005 minutes, 25 μM (activity range) / CsgA ThT Assay (10 μM CsgA) % Control AUC at 1005 minutes, 25 μM: compound 25 μM; for remaining activity at 100 µM / CsgA ThT Assay (10 μM CsgA) % Control AUC at 1005 minutes, 100 μM (activity range) / CsgA ThT Assay (10 μM CsgA) % Control AUC at 1005 minutes, 100 μM: compound 100 μM; for CsgA ThT Assay (10 μM CsgA) % Control AUC at 1005 minutes, 25 μM / CsgA ThT Assay (10 μM CsgA) % Control AUC at 1005 minutes, 100 μM: mean AUC as % of DMSO control. In a few lines: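 Purified C-terminal His-tagged CsgA, monomerised by desalting and 30-kDa filtration, at 2-20 μM with 20-40 μM ThT in 50 mM potassium phosphate pH 7.3, 1% DMSO, compounds 3.125-200 uM; room temperature, fluorescence (ex 438/em 495 nm) read every 15 min. Background-subtracted signal expressed as percent inhibition versus vehicle at 6-6.5 or 8-9 h, or as percent control AUC.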

Where [1] appears, read: read-out: CsgA ThT Assay (10 μM CsgA) % Control AUC at 1005 minutes, 25 μM (activity range), CsgA 10 μM, black plates, 1005 minutes, class symbol.
Setting [2] is: read-out: CsgA ThT Assay (10 μM CsgA) % Control AUC at 1005 minutes, 25 μM, mean AUC as % of DMSO control, CsgA 10 μM, black plates, 1005 minutes.
The mark [3] stands for this setting: read-out: CsgA ThT Assay (10 μM CsgA) % Control AUC at 1005 minutes, 100 μM (activity range), CsgA 10 μM, black plates, 1005 minutes, class symbol.
The mark [4] stands for this setting: read-out: CsgA ThT Assay (10 μM CsgA) % Control AUC at 1005 minutes, 100 μM, mean AUC as % of DMSO control, CsgA 10 μM, black plates, 1005 minutes.
[5] abbreviates: read-out: CsgA ThT Assay (2 μM CsgA) % Control Bmax 25 μM, activity range, class symbol, CsgA 2 μM, white plates.
Setting [6] is: read-out: CsgA ThT Assay (2 μM CsgA) % Control Bmax 25 μM, mean Bmax as percentage of DMSO control, CsgA 2 μM, white plates.
[7] abbreviates: read-out: CsgA ThT Assay (2 μM CsgA) % Control Bmax 100 μM, activity range, class symbol, CsgA 2 μM, white plates.
Setting [8] is: read-out: CsgA ThT Assay (2 μM CsgA) % Control Bmax 100 μM, mean Bmax as percentage of DMSO control, CsgA 2 μM, white plates.
[9] abbreviates: CsgA 10 μM, black plates, 1005 minutes, class symbol.
The mark [10] stands for this setting: CsgA 10 μM, black plates, 1005 minutes.

Structures are written as SMILES. Read-outs that look alike come from different tables or passages of the source. Some results are limits rather than exact numbers.

T1 sequence (P28307 23-151): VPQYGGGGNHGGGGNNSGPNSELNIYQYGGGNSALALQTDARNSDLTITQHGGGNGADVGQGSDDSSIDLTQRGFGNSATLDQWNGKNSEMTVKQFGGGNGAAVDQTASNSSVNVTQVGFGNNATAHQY

For `Cn1c(=O)c2c(nc(CCCCN3CC(C(=O)O)n4c(c(-c5cccc(C(F)(F)F)c5)c(Cc5cccc6ccccc56)cc4=O)S3(=O)=O)n2C)n(C)c1=O` (stereo not drawn) [Compound 044, 8-(naphthalen-1-ylmethyl)-6-oxo-9-(3-(trifluoromethyl)phenyl)-2-(4-(1,3,7-trimethyl-2,6-dioxo-2,3,6,7-tetrahydro-1H-purin-8-yl)butyl)-3,4-dihydro-2H,6H-pyrido[1,2-e][1,2,5]thiadiazine-4-carboxylic acid 1,1-dioxide], the remaining activity at 25 µM by setting is: under setting [1], 31 to 60%; under setting [2], 55%. For the same compound, the remaining activity at 100 µM under setting [3] is 31 to 60% and the remaining activity at 100 µM under setting [4] was determined as 42%.
Turning to `CCc1c(Cc2cccc3ccccc23)c(-c2cccc(C(F)(F)F)c2)c2n(c1=O)C(C(=O)O)CN2Cc1ccc(OC)cc1` (stereo not drawn) [Compound 161, 6-ethyl-1-(4-methoxybenzyl)-7-(naphthalen-1-ylmethyl)-5-oxo-8-(3-(trifluoromethyl)phenyl)-1,2,3,5-tetrahydroimidazo[1,2-a]pyridine-3-carboxylic acid], the remaining activity at 25 µM reads like this: under setting [5], 31 to 60%; under setting [6], 54%. Moreover, the remaining activity at 100 µM was 11 to 31% under setting [7] and 29% under setting [8].
In the same order, the values of `O=C(O)C1CN(CCC2CCCCC2)c2c(-c3cccc(C(F)(F)F)c3)c(Cc3cccc4ccccc34)c(Cl)c(=O)n21` (stereo not drawn) [Compound 207, 6-chloro-1-(2-cyclohexylethyl)-7-(naphthalen-1-ylmethyl)-5-oxo-8-(3-(trifluoromethyl)phenyl)-1,2,3,5-tetrahydroimidazo[1,2-a]pyridine-3-carboxylic acid] are 31 to 60%, 51%, 11 to 31% and 20%.
In the same order, the values of `CCCNC(=O)c1c(Cc2cccc3ccccc23)c(-c2cccc(C(F)(F)F)c2)c2n(c1=O)C(C(=O)O)CN(C)S2(=O)=O` (stereo not drawn) [Compound 154, 2-methyl-8-(naphthalen-1-ylmethyl)-6-oxo-7-(propylcarbamoyl)-9-(3-(trifluoromethyl)phenyl)-3,4-dihydro-2H,6H-pyrido[1,2-e][1,2,5]thiadiazine-4-carboxylic acid 1,1-dioxide] are above 60%, 92%, above 60% and 63%.
Regarding `CNC(=O)CCCCN1CC(C(=O)O)n2c(c(-c3cccc(C(F)(F)F)c3)c(Cc3cccc4ccccc34)cc2=O)S1(=O)=O` (stereo not drawn) [Compound 038, 2-(5-(methylamino)-5-oxopentyl)-8-(naphthalen-1-ylmethyl)-6-oxo-9-(3-(trifluoromethyl)phenyl)-3,4-dihydro-2H,6H-pyrido[1,2-e][1,2,5]thiadiazine-4-carboxylic acid 1,1-dioxide], the remaining activity at 25 µM reads like this: under setting [1], above 60%; under setting [2], 86%. For the same compound, the remaining activity at 100 µM runs as follows: under setting [3], 11 to 31%; under setting [4], 25%.
In the same order, the values of `CC1(C)Sc2c(-c3cccc(C(F)(F)F)c3)c(Cc3cccc4ccccc34)nc(=O)n2C1C(=O)O` (stereo not drawn) [Compound 059, 2,2-dimethyl-7-(naphthalen-1-ylmethyl)-5-oxo-8-(3-(trifluoromethyl)phenyl)-2,3-dihydro-5H-thiazolo[3,2-c]pyrimidine-3-carboxylic acid] are above 60%, 63%, 11 to 31% and 22%.
For `Nc1c(Cc2cccc3ccccc23)c(-c2cccc(C(F)(F)F)c2)c2n(c1=O)C(C(=O)O)CS2` (single isomer, unassigned) [Compound 020b, 6-amino-7-(naphthalen-1-ylmethyl)-5-oxo-8-(3-(trifluoromethyl)phenyl)-2,3-dihydro-5H-thiazolo[3,2-a]pyridine-3-carboxylic acid], under setting [9], the “CsgA ThT Assay (10 μM CsgA) % Control AUC at 1005 minutes, 25 μM (activity range)” value was “(+++) (% control AUC of 11 to 31%)” and the “CsgA ThT Assay (10 μM CsgA) % Control AUC at 1005 minutes, 100 μM (activity range)” value is “(+++) (% control AUC of 11 to 31%)”. Also, under setting [10], the “CsgA ThT Assay (10 μM CsgA) % Control AUC at 1005 minutes, 25 μM” value turned out to be 26% and the “CsgA ThT Assay (10 μM CsgA) % Control AUC at 1005 minutes, 100 μM” value was determined as 16%.
Regarding `O=C(O)C1CN(C[C@@H](O)CO)S(=O)(=O)c2c(-c3cccc(C(F)(F)F)c3)c(Cc3cccc4ccccc34)cc(=O)n21` (mixture of isomers) [Compound 065b, 2-((R)-2,3-dihydroxypropyl)-8-(naphthalen-1-ylmethyl)-6-oxo-9-(3-(trifluoromethyl)phenyl)-3,4-dihydro-2H,6H-pyrido[1,2-e][1,2,5]thiadiazine-4-carboxylic acid 1,1-dioxide], the remaining activity at 25 µM was above 60% under setting [1] and 66% under setting [2]. In addition, the remaining activity at 100 µM by setting is: under setting [3], 11 to 31%; under setting [4], 16%.
Take `CCCN1CC(C(=O)O)n2c(c(-c3cccc(C(F)(F)F)c3)c(Cc3cccc4ccccc34)cc2=O)S1(=O)=O` (single isomer, unassigned) [Compound 016b, 8-(naphthalen-1-ylmethyl)-6-oxo-2-propyl-9-(3-(trifluoromethyl)phenyl)-3,4-dihydro-2H,6H-pyrido[1,2-e][1,2,5]thiadiazine-4-carboxylic acid 1,1-dioxide]: under setting [9], the “CsgA ThT Assay (10 μM CsgA) % Control AUC at 1005 minutes, 25 μM (activity range)” value is recorded as “(++) (% control AUC of 31 to 60%)” and the “CsgA ThT Assay (10 μM CsgA) % Control AUC at 1005 minutes, 100 μM (activity range)” value is “(+++) (% control AUC of 11 to 31%)”. Also, under setting [10], the “CsgA ThT Assay (10 μM CsgA) % Control AUC at 1005 minutes, 25 μM” value is 33% and the “CsgA ThT Assay (10 μM CsgA) % Control AUC at 1005 minutes, 100 μM” value is given as 23%.
For `O=C(O)C1CN(Cc2cccnc2)c2c(-c3cccc(C(F)(F)F)c3)c(Cc3cccc4ccccc34)c(Cl)c(=O)n21` (stereo not drawn) [Compound 169, 6-chloro-7-(naphthalen-1-ylmethyl)-5-oxo-1-(pyridin-3-ylmethyl)-8-(3-(trifluoromethyl)phenyl)-1,2,3,5-tetrahydroimidazo[1,2-a]pyridine-3-carboxylic acid], the remaining activity at 25 µM under setting [5] is above 60% and the remaining activity at 25 µM under setting [6] amounted to 77%. Further, the remaining activity at 100 µM is above 60% under setting [7] and 64% under setting [8].
As to `O=C(O)C1CN(CC2CCOCC2)c2c(-c3cccc(C(F)(F)F)c3)c(Cc3cccc4ccccc34)c(Cl)c(=O)n21` (stereo not drawn) [Compound 182, 6-chloro-7-(naphthalen-1-ylmethyl)-5-oxo-1-((tetrahydro-2H-pyran-4-yl)methyl)-8-(3-(trifluoromethyl)phenyl)-1,2,3,5-tetrahydroimidazo[1,2-a]pyridine-3-carboxylic acid], the remaining activity at 25 µM by setting is: under setting [5], above 60%; under setting [6], 68%. The remaining activity at 100 µM runs as follows: under setting [7], above 60%; under setting [8], 61%.
With `O=C(O)C1CN(CCCO)c2c(-c3cccc(C(F)(F)F)c3)c(Cc3cccc4ccccc34)c(Cl)c(=O)n21` (stereo not drawn) [Compound 197, 6-chloro-1-(3-hydroxypropyl)-7-(naphthalen-1-ylmethyl)-5-oxo-8-(3-(trifluoromethyl)phenyl)-1,2,3,5-tetrahydroimidazo[1,2-a]pyridine-3-carboxylic acid], the remaining activity at 25 µM by setting is: under setting [5], above 60%; under setting [6], 86%. In addition, the remaining activity at 100 µM under setting [7] was above 60% and the remaining activity at 100 µM under setting [8] is 64%.
